Two compounds from patent US20120029196A1, “PURIFICATION 4-AZA-ANDROST-1-ENE-17-OIC ACID FROM 4-AZA-ANDROSTAN-17-OIC ACID” (PHF S.A., priority 2009, published 2012) can be followed below.

This data set is described as follows: solubility in solvents at 25° C. The data set is classed as physicochemical.
The mark [1] stands for this setting: solvent Toluene, LOD = Limit Of Detection.

A value given as a limit tells only on which side of the number the result lay.

On to `C[C@]12CC[C@H]3[C@@H](CCC4NC(=O)C=C[C@@]43C)[C@@H]1CC[C@@H]2C(=O)O` (stereo partly drawn) [Intermediate 1], for which the “solubility at 25° C.” value was found to be 8.1 % w/w (solvent Acetic Acid); 0.06 % w/w (solvent Acetone); 2.4 % w/w (solvent DMF); 0.02 % w/w (solvent Ethyl acetate); 7.7 % w/w (solvent Formic Acid); 0.009 % w/w (solvent MTBE). Moreover, the “solubility at 25° C.” value by setting is: (solvent Methanol) 0.6 % w/w; (solvent Methylene chloride) 0.04 % w/w; (solvent Propionic Acid) 6.6 % w/w; under setting [1], “<LOD”.

`C[C@]12CC[C@H]3[C@@H](CCC4NC(=O)CC[C@@]43C)[C@@H]1CC[C@@H]2C(=O)O` (stereo partly drawn) [Intermediate 2]: the “solubility in formic acid (comparison in words)” value (formic acid) is “higher than Intermediate 1”. For the same compound, the “solubility at 25° C.” value was found to be 3.69 % w/w (solvent Acetic Acid); 0.008 % w/w (solvent Acetone); 0.40 % w/w (solvent DMF); 0.003 % w/w (solvent Ethyl acetate); 20.32 % w/w (solvent Formic Acid); 0.001 % w/w (solvent MTBE). Besides, the “solubility at 25° C.” value (solvent Methanol) is recorded as 0.16 % w/w, the “solubility at 25° C.” value (solvent Methylene chloride) was determined as 0.008 % w/w, the “solubility at 25° C.” value (solvent Propionic Acid) is recorded as 3.10 % w/w and the “solubility at 25° C.” value under setting [1] is reported as “<LOD”.
